How the values were obtained:
[1] = tested on: P388 leukemia; test: murine P388 leukemia antitumor activity; type: in vivo; conditions: approximate LD10 dose (M-TAG 250 mg/kg; mitomycin C 4 mg/kg), day one
Method: The murine P388 leukemia system, maintained intraperitoneally in female DBA/2 mice, was used to evaluate antitumor activity.
The P388 antileukemic activity of the test compound (M-TAG) was assessed by mean survival days, percentage increased life span or %ILS, and number of survivors after 45 days. The %ILS was calculated as follows:
%ILS=(T-C)/C×100 where T is the mean survival days of the treated mice and C is the mean survival days of the untreated mice

[2] = toxic single doses in normal CD2F1 mice
Method: Drug was administered intraperitoneally (i.p.) in a volume of 0.1 ml per 10 grams body weight.

[3] = in vitro; conditions: human, bone marrow cells
Method: The human bone marrow CFU-C assay measures human bone marrow cells committed to granulocyte-macrophage differentiation. This in vitro assay serves as a model for predicting the relative toxicity of an experimental drug on the granulocytic series of the bone marrow. […] Both drugs were dissolved in 0.5% DMSO, and nucleated human bone marrow cells were exposed in vitro (for 90 minutes at 37° C.) to varying concentrations of each drug. The cells were then plated in triplicate in 3% agar for the CFU-C assay, using GCT, (Giant Cell Tumor) extract (Gibco, Grand Island, N.Y.) as colony-stimulating factor.

[4] = tested on: Listeria Sp.; test: antibiotic activity, bacterial growth inhibition in culture; type: cell-based
Method: (§1) Bacteria were grown in a standard growth culture at pH 7.2. After the cultures were incubated at 37° C. overnight and diluted into fresh medium, controls and the test antibiotics dissolved in 0.3% hydroxy propylcellulose (HPC) were added at various concentrations and then reincubated overnight. The measure of antibiotic activity was determined by the amount of bacterial growth inhibition as shown by measurement of the optical density at 660 nm.

[5] = tested on: Pseudomonas Sp.; test: as above; type: cell-based
Method: as §1

[6] = tested on: Staphylococcus Sp.; test: as above; type: cell-based
Method: as §1

[7] = tested on: WP2s (E. coli); test: as above; type: cell-based
Method: as §1

[8] = tested on: W3100 (E. coli); test: as above; type: cell-based
Method: as §1

[9] = tested on: Klebsiella Pneumonia; test: as above; type: cell-based
Method: as §1

[10] = tested on: bone marrow; conditions: mice, rats, cats, dogs, and rhesus monkeys; cited from earlier work
[11] = tested on: B16 melanoma; test: murine B16 melanoma antitumor activity; conditions: M-TAG 250 mg/kg or mitomycin C 4 mg/kg, i.p. day 1
Source text: Activity against the murine B16 melanoma is currently being determined.

[12] = tested on: peripheral leukocyte (WBC); test: effects on peripheral leukocyte (WBC) count; type: in vivo, mice
Method: Comparative studies were performed with M-TAG and mitomycin C. Drug was dissolved in absolute ethanol, and then adjusted to a final concentration of 8% ethanol-92% sterile water. Blood samples obtained were diluted in 9.98 ml of Isoton (a neutral isotonic buffer solution) and counted in a Coulter counter after lysis with Zapoglobin (an enzyme solution which lyses red blood cells but not white blood cells). WBC counts are expressed as a percentage of values from control mice receiving drug vehicle only.

[13] = tested on: Ehrlich ascites; test: murine Ehrlich ascites antitumor activity; type: in vivo
Method: The antitumor activity of M-TAG for the murine Ehrlich ascities tumor was also determined. Ehrlich ascites was maintained i.p. in female BALB/C mice. For antitumor studies, 1×10^7 Ehrlich ascites cells (in 0.10 ml) were implanted i.p. in male BD2F1 mice. Drug was administered i.p. (single LD10 dose) one day after tumor implantation.

[14] = Escherichia coli, 0.04 mcg/ml, 37° C. overnight, read-out: amount of bacterial growth inhibition (first figure)
[15] = Escherichia coli, 0.4 mcg/ml, 37° C. overnight, read-out: amount of bacterial growth inhibition (first figure)
[16] = Escherichia coli, 4.0 mcg/ml, 37° C. overnight, read-out: amount of bacterial growth inhibition (first figure)
[17] = Escherichia coli, 40 mcg/ml, 37° C. overnight, read-out: amount of bacterial growth inhibition (first figure)
[18] = Escherichia coli, 400 mcg/ml, 37° C. overnight, read-out: amount of bacterial growth inhibition (first figure)

In the case of `CO[C@@]12[C@H](COC(N)=O)C3=C(C(=O)C(C)=C(N)C3=O)N1C[C@@H]1N[C@@H]12` [Mitomycin C, mitomycin C, reference compound], the “% ILS” value [1] is reported as 84%, the “Mean Survival” value [1] is reported as 21 days and the “approximate LD10 dose (molar)” value ([2]; single i.p. dose) is reported as about 12 µmol/kg. The LD10 dose ([2]; single i.p. dose toxic to 10% of normal mice) was about 4 mg/kg, the activity at 1.5 h, 1 µM [3] was 30% and the activity at 1.5 h, 5 µM [3] was 21%. For the same molecule, the activity at 1.5 h, 10 µM [3] was under 10%, the “optical density at 660 nm (figure in parentheses)” value (“optical density at 660 nm” below) ([4]; 0.4 mcg/ml) was 0.13 and the “optical density at 660 nm” value ([4]; 4.0 mcg/ml) was 0.03. The “optical density at 660 nm” value ([4]; 40 mcg/ml) was 0.018, the “optical density at 660 nm” value ([4]; 400 mcg/ml) was 0.018 and the inhibition at 0.04 µg/mL ([4]; Listeria, 0.04 mcg/ml, 37° C. overnight, read-out: amount of bacterial growth inhibition (first figure)) was 85%. For the same molecule, the inhibition at 0.4 µg/mL ([4]; Listeria, 0.4 mcg/ml, 37° C. overnight, read-out: amount of bacterial growth inhibition (first figure)) was 95%, the inhibition at 4 µg/mL ([4]; Listeria, 4.0 mcg/ml, 37° C. overnight, read-out: amount of bacterial growth inhibition (first figure)) was 93% and the inhibition at 40 µg/mL ([4]; Listeria, 40 mcg/ml, 37° C. overnight, read-out: amount of bacterial growth inhibition (first figure)) was 96%. For the same molecule, the inhibition at 400 µg/mL ([4]; Listeria, 400 mcg/ml, 37° C. overnight, read-out: amount of bacterial growth inhibition (first figure)) was 96%, the “optical density at 660 nm” value ([5]; 0.04 mcg/ml) was 0.11 and the “optical density at 660 nm” value ([5]; 0.4 mcg/ml) was 0.11. For the same molecule, the “optical density at 660 nm” value ([5]; 4.0 mcg/ml) was 0.11, the “optical density at 660 nm” value ([5]; 40 mcg/ml) was 0.14 and the “optical density at 660 nm” value ([5]; 400 mcg/ml) was 0.15. It also gave an inhibition at 0.04 µg/mL ([5]; Pseudomonas, 0.04 mcg/ml, 37° C. overnight, read-out: amount of bacterial growth inhibition (first figure)) of 78%, an inhibition at 0.4 µg/mL ([5]; Pseudomonas, 0.4 mcg/ml, 37° C. overnight, read-out: amount of bacterial growth inhibition (first figure)) of 78% and an inhibition at 4 µg/mL ([5]; Pseudomonas, 4.0 mcg/ml, 37° C. overnight, read-out: amount of bacterial growth inhibition (first figure)) of 78%. The inhibition at 40 µg/mL ([5]; Pseudomonas, 40 mcg/ml, 37° C. overnight, read-out: amount of bacterial growth inhibition (first figure)) was 72%, the inhibition at 400 µg/mL ([5]; Pseudomonas, 400 mcg/ml, 37° C. overnight, read-out: amount of bacterial growth inhibition (first figure)) was 71% and the “optical density at 660 nm” value ([6]; 0.04 mcg/ml) was 0.52. The “optical density at 660 nm” value ([6]; 0.4 mcg/ml) was 0.03, the “optical density at 660 nm” value ([6]; 4.0 mcg/ml) was 0.03 and the “optical density at 660 nm” value ([6]; 40 mcg/ml) was 0.041. The “optical density at 660 nm” value ([6]; 400 mcg/ml) was 0.046, the inhibition at 0.04 µg/mL ([6]; Staphylococcus, 0.04 mcg/ml, 37° C. overnight, read-out: amount of bacterial growth inhibition (first figure)) was 30% and the inhibition at 0.4 µg/mL ([6]; Staphylococcus, 0.4 mcg/ml, 37° C. overnight, read-out: amount of bacterial growth inhibition (first figure)) was 93%. For the same molecule, the inhibition at 4 µg/mL ([6]; Staphylococcus, 4.0 mcg/ml, 37° C. overnight, read-out: amount of bacterial growth inhibition (first figure)) was 93%, the inhibition at 40 µg/mL ([6]; Staphylococcus, 40 mcg/ml, 37° C. overnight, read-out: amount of bacterial growth inhibition (first figure)) was 91% and the inhibition at 400 µg/mL ([6]; Staphylococcus, 400 mcg/ml, 37° C. overnight, read-out: amount of bacterial growth inhibition (first figure)) was 90%. The “optical density at 660 nm” value ([7]; 0.04 mcg/ml) was 0.16, the inhibition at 0.04 µg/mL [7, 14] was 70% and the inhibition at 0.4 µg/mL [7, 15] was 86%. It also gave an inhibition at 4 µg/mL [7, 16] of 84%, an inhibition at 40 µg/mL [7, 17] of 85% and an inhibition at 400 µg/mL [7, 18] of 85%. For the same molecule, the “optical density at 660 nm” value ([8]; 0.04 mcg/ml) was 0.13, the “optical density at 660 nm” value ([8]; 0.4 mcg/ml) was 0.051 and the “optical density at 660 nm” value ([8]; 4.0 mcg/ml) was 0.06. It also gave an inhibition at 0.04 µg/mL [8, 14] of 74%, an inhibition at 0.4 µg/mL [8, 15] of 89% and an inhibition at 4 µg/mL [8, 16] of 88%. The inhibition at 40 µg/mL [8, 17] was 80%, the inhibition at 400 µg/mL [8, 18] was 80% and the “optical density at 660 nm” value ([9]; 0.04 mcg/ml) was 0.52. The “optical density at 660 nm” value ([9]; 0.4 mcg/ml) was 0.086, the “optical density at 660 nm” value ([9]; 4.0 mcg/ml) was 0.06 and the “optical density at 660 nm” value ([9]; 400 mcg/ml) was 0.13. The inhibition at 0.04 µg/mL ([9]; Klebsiella pneumoniae, 0.04 mcg/ml, 37° C. overnight, read-out: amount of bacterial growth inhibition (first figure)) was 30%, the inhibition at 0.4 µg/mL ([9]; Klebsiella pneumoniae, 0.4 mcg/ml, 37° C. overnight, read-out: amount of bacterial growth inhibition (first figure)) was 82% and the inhibition at 4 µg/mL ([9]; Klebsiella pneumoniae, 4.0 mcg/ml, 37° C. overnight, read-out: amount of bacterial growth inhibition (first figure)) was 87%. For the same molecule, the inhibition at 40 µg/mL ([9]; Klebsiella pneumoniae, 40 mcg/ml, 37° C. overnight, read-out: amount of bacterial growth inhibition (first figure)) was 85%, the inhibition at 400 µg/mL ([9]; Klebsiella pneumoniae, 400 mcg/ml, 37° C. overnight, read-out: amount of bacterial growth inhibition (first figure)) was 75% and the “toxicity in animals (in words)” value [10] was “severe bone marrow depression and gastrointestinal damage, and were delayed in onset”. The “mice alive on day 20” value [11] was 5 out of 10, the “mice alive on day 10” value ([11]; all vehicle-control mice died) was “All” and the “WBC nadir, % of the control” value ([12]; 4 mg/kg i.p.) was 76%. For the same molecule, the “WBC depression / myelotoxicity (in words)” value ([12]; LD10-range dose i.p., days 3, 4, 5, 6 and 10) was “significantly greater than that produced by an equitoxic dose of M-TAG (P<0.01)”, the “decrease in WBC counts” value ([12]; LD10 dose) was 24% and the “mice alive on Day 30” value ([13]; 4 mg/kg i.p.) was 50%. The “% ILS” value ([13]; single approximate LD10 dose i.p. (M-TAG 250 mg/kg; mitomycin C 4 mg/kg), one day after implantation) was 82%.

Reference: patent US4720543A, “1a-7-substituted derivatives of mitomycin and uses thereof” (priority 1985, dated 1988)
